This note sets out measurements from patent US12679839B2, “Cyclin-dependent kinase 7 (CDK7) non-covalent inhibitors” (JANSSEN PHARMACEUTICA NV, priority 2020, dated 2026).

In experiment [1] the test system is RNA polymerase II Serine 5 phosphorylation (Rpb1 CTD), downstream substrate of CDK7. The experiment is described as follows: Imaging-based cellular RNA PolII Ser5 phosphorylation assay in A549 cells. The class given is cell-based, human. Particulars: Homo sapiens, A549, 3 h, challenged with compound for 3 hours, read-out: pRNA polII Ser5 (A549) pIC50 (converted). The procedure, abridged:
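A549 cells seeded 20 h in DMEM with 1% FBS, then exposed to compound for 3 h at 37 °C; fixed, methanol-permeabilized and immunostained for phospho-Rpb1 CTD Ser5, read by automated imaging. Signal normalized to DMSO (high) and 10 μM LDC4297 (low) controls; IC50 from four-parameter fit of % control vs concentration.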

The target of experiment [2] is T1, CDK7/Cyclin H/MAT-1 complex (Homo sapiens, UniProt P50613).
T1 construct: Human CDK7 (amino acids 1-346); His6 (N); TEV protease cleavage site (N); made in house; host or cells: baculovirus-SF9 insect cells
The experiment is described as follows: Flint assay, end-point fluorescence (5 nM CDK7/Cyclin H/MAT-1 complex). The class given is biochemical. The note with it: read-out: CDK7 (5 nM) pIC50 (converted). How it is done: (§1) Human CDK7 (amino acids 1-346) containing an N-terminal His6-tag followed by a tobacco etch virus (TEV) protease cleavage site, human MAT1 (amino acids 1-309) and human cyclin H (amino acids 1-323) were co-expressed in the baculovirus-SF9 insect cell expression system to generate a trimeric complex. Cell pellets were collected 72 h post-infection and were resuspended by Dounce homogenization in 20 mM Hepes-NaOH (pH 8.0), 300 mM NaCl, 10% glycerol, 2 mM dithiothreitol DTT), and 20 mM Imidazole supplemented with cOmplete™ Protease Inhibitor Cocktail (Roche) and 25 U/mL Benzonase® Nuclease HC according to the manufacturer's instructions. Cells were lysed by passing through a Microfluidics M110Y Microfluidizer 3 times at 600 kPa followed by centrifugation at 38,000×g at 4° C. for 1 hour. The supernatant was loaded onto a pre-equilibrated HisTrap HP column and eluted in 20 mM Hepes-NaOH (pH 8.0), 50 mM NaCl, 10% glycerol, 2 mM DTT, and 400 mM Imidazole. The eluate was further purified by gel filtration on a Superdex S200 16/60 column and eluted with 20 mM Hepes-NaOH (pH 7.5), 50 mM NaCl, 10% Glycerol, 2 mM DTT. Fractions containing a trimeric complex of CDK7, cyclin H, and MAT1 in a 1:1:1 ratio were pooled and concentrated to 3 mg/mL in a 10 kDa MWCO concentrator, and diluted to a final concentration of 1.6 mg/mL in 11.1 mM Hepes-NaOH (pH 8.0), 27.8 mM NaCl, 1.1 mM DTT and 50% glycerol.
Compounds with potencies approaching the limit of detection of the assay (IC50≤10 nM) were further assessed in a more sensitive fluorescence end-point assay.
(§2) [formula] where νo is the rate in the absence of inhibitor, νmin is the rate at highest inhibitor concentration, and h is the Hill coefficient. Flint Assay (5 nM CDK7/Cyclin H/MAT-1 Complex)
The continuous absorbance assay was converted to an end-point fluorescence assay following the NADH fluorescence signal decrease at the excitation and emission wavelengths of 340 nm and 440 nm, respectively.
Under the same concentrations of substrates and coupling reagents used in the absorbance assay, the fluorescence assay was performed at a reduced concentration of the CDK7/Cyclin H/MAT-1 complex of 5 nM (final concentration) with a reaction time of 24 hours. The percent of inhibition was calculated by the following equation. Percent of inhibition=(Sample−NC)/(PC−NC)*100 where NC is the mean if negative control (reaction without inhibitor), and PC is the mean of positive control (reaction with complete inhibition).
Dosing curves were fitted using the following equation to obtain IC50: Y=Bottom+(Top−Bottom)/(1+10^((log IC50−X)*Hill slope)) where X=log10 of the compound concentration; top and bottom can be defined by PC and NC respectively. Imaging-Based Cellular RNA PolII Ser5 Phosphorylation Assay

The target in experiment [3] is T1, CDK7/Cyclin H/MAT-1 complex. The experiment is described as follows: Absorbance kinetic assay (20 nM CDK7/Cyclin H/MAT-1 complex). In kind it is biochemical. Particulars: for IC50: read-out: CDK7 (20 nM) pIC50 (converted). The method, then:
as §1, with “glycerol. […]” for “glycerol.”
Absorbance Kinetic Assay (20 nM CDK7/Cyclin H/MAT-1 Complex)
CDK7 complex catalyzes the ATP-dependent phosphorylation of a peptide substrate CDK7/9-tide that is derived from RNA Pol II to produce phosphorylated peptide and ADP. The kinase reaction product ADP was converted to lactate and NAD^+ in the presence of phosphoenol pyruvate (PEP), NADH and coupling enzymes lactate dehydrogenase (LDH) and pyruvate kinase (PK). CDK7 complex catalytic activity was measured by following the absorbance intensity continuously at 340 nm that corresponds with the depletion of NADH.
Absorbance at 340 nm was followed kinetically at an interval of 2 minutes for 8 hours.
The assay was carried out with 100 μl reaction volume per well in a 384-well plate that was pre-spotted nanoliter volume of compounds by LabCyte Echo 555. Compound dilution plates were made by 2-fold (could vary upon necessity) dilution in DMSO for 11 concentrations plus a DMSO control of uninhibited reaction. 2× substrate and coupling reagent mixture was added to the assay plate followed by an addition of an equal volume of 40 nM CDK7/Cyclin H/MAT-1 complex. After mixing, assay plates were spun at 2000 rpm for 3 minutes and then transferred to the plate reader for data collection.
For reversible inhibitors, the absorbance reaction progress curves were linear. The steady-state rate was derived from the slope of the linear curves. The following equation is applied to determine percent inhibition.
[formula] • νo=max rate (uninhibited rate) • νi=inhibited rate
The IC50 value is calculated by the following equation:
as §2

T1 sequence (P50613 whole entry, the tested form may be a part): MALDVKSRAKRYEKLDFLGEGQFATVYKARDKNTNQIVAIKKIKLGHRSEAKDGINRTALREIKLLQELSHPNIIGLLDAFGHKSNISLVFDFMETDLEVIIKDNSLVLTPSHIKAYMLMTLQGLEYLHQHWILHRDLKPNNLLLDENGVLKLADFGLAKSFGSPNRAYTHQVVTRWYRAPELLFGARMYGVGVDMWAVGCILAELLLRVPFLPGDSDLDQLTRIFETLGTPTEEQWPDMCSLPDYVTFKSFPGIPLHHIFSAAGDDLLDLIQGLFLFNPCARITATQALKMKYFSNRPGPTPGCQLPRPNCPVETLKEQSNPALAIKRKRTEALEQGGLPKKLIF
T1 sequence (P51946 whole entry partner, the tested form may be a part): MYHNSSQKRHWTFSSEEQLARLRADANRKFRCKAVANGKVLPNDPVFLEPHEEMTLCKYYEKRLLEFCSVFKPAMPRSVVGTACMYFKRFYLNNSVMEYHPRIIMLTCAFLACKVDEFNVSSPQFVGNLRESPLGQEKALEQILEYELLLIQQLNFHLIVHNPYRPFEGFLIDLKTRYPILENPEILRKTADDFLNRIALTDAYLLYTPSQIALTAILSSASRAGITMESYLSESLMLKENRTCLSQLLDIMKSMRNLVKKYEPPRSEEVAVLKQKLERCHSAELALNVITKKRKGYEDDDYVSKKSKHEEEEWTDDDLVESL
T1 sequence (P51948 whole entry partner, the tested form may be a part): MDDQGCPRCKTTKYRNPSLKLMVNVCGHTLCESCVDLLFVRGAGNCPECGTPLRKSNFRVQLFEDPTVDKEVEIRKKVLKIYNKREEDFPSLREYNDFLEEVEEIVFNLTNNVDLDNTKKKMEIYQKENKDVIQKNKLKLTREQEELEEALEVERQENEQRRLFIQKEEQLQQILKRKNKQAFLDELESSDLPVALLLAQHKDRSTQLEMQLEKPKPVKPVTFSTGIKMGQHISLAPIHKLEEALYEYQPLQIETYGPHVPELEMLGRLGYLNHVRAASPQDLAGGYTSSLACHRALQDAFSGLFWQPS

For `[2H]C([2H])([2H])N1CC[C@H](C(=O)N2Cc3nc(NC4CCOCC4)ncc3C[C@H]2C)[C@@H](c2ccccc2)C1` (single isomer, unassigned) [Compound 156], the IC50 in experiment [1] was 0.126 µM; in experiment [2] it was 3.24 nM.
As to `CC(C)N1CC[C@@H](C(=O)N2Cc3nc(NC4CCOCC4)ncc3C[C@H]2C)[C@H](c2cccc(F)c2)C1` (single isomer, unassigned) [Compound 164], in experiment [3], the “CDK7 (20 nM) pIC50” value came to 6.06. The IC50 in experiment [1] is 4.07 µM.
Turning to `C[C@@H]1Cc2cnc(NCC(=O)N3CCCCC3)nc2CN1C(=O)[C@H]1CCN(C)C[C@@H]1c1ccccc1` [Compound 28], the “CDK7 (20 nM) pIC50” value in experiment [3] turned out to be 6.59. Moreover, the IC50 in experiment [1] was more than 10 µM.
For the compound `C[C@@H]1Cc2cnc(NC3CCOCC3)nc2CN1C(=O)[C@@H]1CCN(C)C[C@H]1C1CC1` (relative stereo) [Compound 112], the IC50 in experiment [3] is more than 10000 nM; in experiment [1], more than 10 µM.
Regarding `Cc1ccc([C@H]2CN(C)CC[C@@H]2C(=O)N2Cc3nc(NC4CCOCC4)ncc3C[C@H]2C)cn1` (relative stereo) [Compound 107], the IC50 in experiment [3] is more than 10000 nM; in experiment [1], more than 10 µM.
Turning to `C[C@@H]1Cc2cnc(NC3CCN(S(=O)(=O)C4CC4)CC3)nc2CN1C(=O)[C@H]1CCN(C)C[C@@H]1c1ccccc1` [Compound 41], the “CDK7 (20 nM) pIC50” value in experiment [3] stood at 6.18. Moreover, the IC50 in experiment [1] was more than 10 µM.
Take `C[C@@H]1Cc2cnc(NC3CCOCC3)nc2CN1C(=O)[C@H]1CCN(C)C[C@@H]1C1CC1` (relative stereo) [Compound 113]: the IC50 is 79.4 nM in experiment [3] and 1.74 µM in experiment [1].
With `C[C@@H]1Cc2cnc(NC3CCOCC3)nc2CN1C(=O)[C@H]1CCN(C)C[C@@H]1C1CC1` (racemic) [Compound 111], the IC50 was 214 nM in experiment [3] and 8.32 µM in experiment [1].
Consider `C[C@@H]1CN(C(=O)[C@H]2CCN(C)C[C@@H]2c2ccccc2)[C@H](C)c2nc(NC3CCOCC3)ncc21` (relative stereo) [Compound 182], for which the results for the IC50 in experiment [3] and in experiment [1] were 724 nM and 4.27 µM, respectively.
Taken in the same sequence, the figures for `C[C@@H]1Cc2cnc(N[C@@H]3CCN(C)C(=O)C3)nc2CN1C(=O)[C@H]1CCN(C)C[C@@H]1c1ccccc1` (relative stereo) [Compound 4] were 35.5 nM and approximately 8.13 µM.
With `C[C@@H]1Cc2cnc(NCc3cn(C)cn3)nc2CN1C(=O)[C@H]1CCN(C)C[C@@H]1c1ccccc1` [Compound 63], in experiment [3], the “CDK7 (20 nM) pIC50” value was 7.38. Further, the IC50 in experiment [1] was more than 10 µM.
Regarding `Cc1ccc([C@H]2CN(C)CC[C@@H]2C(=O)N2Cc3nc(NC4CCOCC4)ncc3C[C@H]2C)cc1` (relative stereo) [Compound 118], the IC50 in experiment [3] is 11.7 nM; in experiment [1], 0.269 µM.
For `C[C@@H]1Cc2cnc(NC3CCOCC3)nc2CN1C(=O)[C@@H]1CCN(C)C[C@H]1c1ccc(Cl)c(F)c1` [Compound 122a], the “CDK7 (20 nM) pIC50” value in experiment [3] is reported as less than 5. Further, the IC50 in experiment [1] is more than 10 µM.
With `Cc1cccc([C@@H]2CN(C)CC[C@H]2C(=O)N2Cc3nc(NC4CCOCC4)ncc3C[C@H]2C)c1` (relative stereo) [Compound 137], the IC50 in experiment [3] was 457 nM; in experiment [1] it was 0.955 µM.
Taken in the same sequence, the figures for `CO[C@H]1CC[C@H](Nc2ncc3c(n2)CN(C(=O)[C@H]2CCN(C)C[C@@H]2c2ccnc(C)c2)[C@H](C)C3)CC1` (relative stereo) [Compound 106] were 6030 nM and more than 10 µM.
Taken in the same sequence, the figures for `C[C@@H]1Cc2cnc(NC3CCOCC3)nc2CN1C(=O)[C@H]1CCN(C)C[C@@H]1c1ccc(F)c(Cl)c1` (relative stereo) [Compound 114] were 11 nM and 0.0562 µM.
In the case of `Cc1cc(C2CN(C)CCC2C(=O)N2Cc3nc(NC4CCOCC4)ncc3C[C@H]2C)ccn1` (stereo partly drawn) [Compound 101], the “CDK7 (20 nM) pIC50” value in experiment [3] came out at 7.67. Further, in experiment [1], the IC50 is 4.47 µM.
Turning to `C[C@@H]1Cc2cnc(NC3CCOCC3)nc2CN1C(=O)[C@@H]1CC[C@H](N(C)C)CN1c1ccccc1` (mixture of isomers) [Compound 168], the “CDK7 (20 nM) pIC50” value in experiment [3] worked out at 5.87. Besides, the IC50 in experiment [1] is more than 10 µM.
Regarding `CO[C@]1(C)CC[C@H](Nc2ncc3c(n2)CN(C(=O)[C@H]2CCN(C)C[C@@H]2c2ccccc2)[C@H](C)C3)CC1` [Compound 11], the results for the IC50 in experiment [3] and in experiment [1] were 13.8 nM and 1.35 µM, respectively.
Taken in the same sequence, the figures for `C[C@@H]1Cc2cnc(NCc3ccccc3)nc2CN1C(=O)[C@H]1CCN(C)C[C@@H]1C(F)(F)F` (relative stereo) [Compound 142] were 2950 nM and 4.17 µM.
Take `C[C@@H]1Cc2cnc(NC3CCOCC3)nc2CN1C(=O)[C@@H]1CCN(C)C[C@H]1c1ccc(F)cc1` [Compound 92a]: the “CDK7 (20 nM) pIC50” value in experiment [3] was found to be 5.11. Further, in experiment [1], the IC50 was more than 10 µM.
As to `C[C@@H]1Cc2cnc(NC3CCOCC3)nc2CN1C(=O)[C@H]1CCN(C)C[C@@H]1C1CCOCC1` (relative stereo) [Compound 115], the IC50 is 120 nM in experiment [3] and 6.31 µM in experiment [1].
On to `CO[C@H]1CC[C@H](Nc2cc3c(cn2)C[C@H](C)N(C(=O)[C@H]2CCN(C)C[C@@H]2c2ccccc2)C3)CC1` (single isomer, unassigned) [Compound 172], for which the IC50 in experiment [1] was 0.186 µM; in experiment [2], 7.41 nM.
For the compound `C[C@@H]1Cc2cnc(NC3CCOCC3)nc2CN1C(=O)[C@H]1CCN(C)C[C@@H]1c1ccc(F)cc1` (single isomer, unassigned) [Compound 92b], the “CDK7 (20 nM) pIC50” value in experiment [3] was 7.92. Also, in experiment [1], the IC50 was approximately 0.0676 µM.
